The results in this text go back to patent US20240148821A1, “PHARMACEUTICAL USE OF CYCLIC PEPTIDE COMPOUND” (CHUGAI SEIYAKU KABUSHIKI KAISHA, priority 2021, published 2024).

pIC50: −log10 of the molar value. Numbered stars: 1 amine (or outer) side, 2 acyl side, 3 side chain; on linkers, the order of the positions; unused ones are H or OH. Bridge positions count the residues as written; N and C are the ends. Square brackets hold non-standard residues; d marks the D form. Peptide text beside a SMILES is read from it. * marks the point of attachment. NMeAbu(3,3-F2-piperidino) = CN[C@@H](CCN1CCCC(F)(F)C1)C(=O)O; hPhe(3-Cl-4-CF3) = N[C@@H](CCc1ccc(C(F)(F)F)c(Cl)c1)C(=O)O; hPhe(3-F,4-CF3) = N[C@@H](CCc1ccc(C(F)(F)F)c(F)c1)C(=O)O; Phe(3-CF3) = N[C@@H](Cc1cccc(C(F)(F)F)c1)C(=O)O; NMePhe(4-Cl) = CN[C@@H](Cc1ccc(Cl)cc1)C(=O)O; NMePhe(2-CN) = CN[C@@H](Cc1ccccc1C#N)C(=O)O; NMePhe(4-Me) = CN[C@@H](Cc1ccc(C)cc1)C(=O)O; NMedβ3hAla = C[C@H](CC(=O)[*:2])N(C)[*:1]; NMeGly(cPent) = CN[C@H](C(=O)O)C1CCCC1; Phe(3-I) = N[C@@H](Cc1cccc(I)c1)C(=O)O; X67 = O=C([C@@H]1CCC[C@H]1N[*:1])[*:2]; NMeCha = CN[C@@H](CC1CCCCC1)C(=O)O; NMeChg = CN[C@H](C(=O)O)C1CCCCC1; NMeI = CC[C@H](C)[C@H](NC)C(=O)O; NMeD = CN[C@@H](CC(=O)O)C(=O)O; NMeL = CN[C@@H](CC(C)C)C(=O)O; NMeNva = CCC[C@H](NC)C(=O)O; NMeV = CN[C@H](C(=O)O)C(C)C; d(β3hA) = C[C@@H](N)CC(=O)O; Pip = O=C(O)[C@@H]1CCCCN1; Iva = CC[C@](C)(N)C(=O)O; NMeA = CN[C@@H](C)C(=O)O; NMeAib = CNC(C)(C)C(=O)O; Nle = CCCC[C@H](N)C(=O)O; Piperidide = C1CCN(*)CC1; dNMeA = CN[C@H](C)C(=O)O; Ac5c = NC1(C(=O)O)CCCC1; Aze = O=C(O)[C@@H]1CCN1; Thp = NC1(C(=O)O)CCOCC1; NPrGly = CCCNCC(=O)O; Sar = CNCC(=O)O

For the assay, the system named is Human pancreatic cancer cell line AsPC-1 (G12D mutation Kras). The assay is described as follows: AsPC-1 cell growth inhibition (AsPC-1 CGI). Particulars: read-out: AsPC-1 cell growth inhibition, 50% growth inhibitory concentration (IC50 value); 96 hours, CellTiter-Glo, values classified in ranges. Format: cell-based. For orientation: In ATP-based viability assays light output follows the ATP content of the culture.
Experimental: Test compounds were serially dilated with dimethyl sulfoxide, and 200 nL was then dispensed to a U-bottom 96-well plate using Labcyte Echo. […] The cell suspension was dispensed to a. plate containing a test compound at 100 μL per well and incubated at 37° C. in a 5% carbon dioxide gas incubator. 96 hours later, 80 μL of CellTiter-Glo (Promega) was added to each well and fluorescence was measured.
For `CC[C@H](C)[C@@H]1NC(=O)[C@H](CC(C)C)N(C)C(=O)[C@@H]2CCC[C@H]2NC(=O)[C@H](C(C)C)N(C)C(=O)C2(CCCC2)NC(=O)[C@@H]2CCCN2C(=O)[C@H](CCc2ccc(C(F)(F)F)c(Cl)c2)NC(=O)CN(C)C(=O)[C@H](CC2CCCCC2)N(C)C(=O)CN(C)C(=O)CN(C)C1=O` [Compound 347] (cyclo([Ac5c][NMeV][X67][NMeL]I[Sar][Sar][NMeCha][Sar][hPhe(3-Cl-4-CF3)]P)), the pIC50 was under 6.30.

As to `CCCC[C@@H]1NC(=O)[C@H](CCc2ccc(C(F)(F)F)c(Cl)c2)NC(=O)CN(C)C(=O)[C@H](Cc2ccc(Cl)cc2)N(C)C(=O)[C@@H]2CCN2C(=O)CN(C)C(=O)[C@H]([C@@H](C)CC)NC(=O)[C@@H]2CCCCN2C(=O)C[C@@H](C(=O)N2CCCCC2)N(C)C(=O)[C@H](CC(C)C)NC(=O)C(C)(C)N(C)C1=O` [Compound 352] ([Pip]I[Sar][Aze][NMePhe(4-Cl)][Sar][hPhe(3-Cl-4-CF3)][Nle][NMeAib]L[NMeD]-Piperidide; lactam N-11), the pIC50 is under 6.30. Next, `CC[C@H](C)[C@@H]1NC(=O)[C@H](CC(C)C)N(C)C(=O)C[C@@H](C)N(C)C(=O)[C@H](C(C)C)N(C)C(=O)C2(CCCC2)NC(=O)[C@@H]2CCCN2C(=O)[C@H](CCc2ccc(C(F)(F)F)c(Cl)c2)NC(=O)CN(C)C(=O)[C@H](Cc2ccccc2C#N)N(C)C(=O)CN(C)C(=O)CN(C)C1=O` [Compound 357] (cyclo([Ac5c][NMeV][NMedβ3hAla][NMeL]I[Sar][Sar][NMePhe(2-CN)][Sar][hPhe(3-Cl-4-CF3)]P)): under 6.30.

Regarding `CC[C@H](C)[C@@H]1NC(=O)[C@H](CC(C)C)N(C)C(=O)C[C@@H](C(=O)N(C)C)N(C)C(=O)[C@H](C2CCCC2)N(C)C(=O)C2(CCCC2)NC(=O)[C@@H]2CCCN2C(=O)[C@H](CCc2ccc(C(F)(F)F)c(Cl)c2)NC(=O)CN(C)C(=O)[C@H](Cc2ccc(C)cc2)N(C)C(=O)[C@@H]2CCN2C(=O)[C@H](C)NC1=O` [Compound 363] ([NMeL]IA[Aze][NMePhe(4-Me)][Sar][hPhe(3-Cl-4-CF3)]P[Ac5c][NMeGly(cPent)][NMeD]-NMe2; lactam N-11), the pIC50 was at least 7.70. Take `CC[C@H](C)[C@@H]1NC(=O)[C@H](CC(C)C)NC(=O)C[C@@H](C(=O)N2CCCCC2)N(C)C(=O)[C@H](C(C)C)N(C)C(=O)C2(CCCC2)NC(=O)[C@@H]2CCCN2C(=O)[C@H](CCc2ccc(C(F)(F)F)c(Cl)c2)NC(=O)CN(C)C(=O)[C@H](CC2CCCCC2)N(C)C(=O)[C@@H]2CCN2C(=O)[C@H](C)N(C)C1=O` [Compound 368] (LI[NMeA][Aze][NMeCha][Sar][hPhe(3-Cl-4-CF3)]P[Ac5c][NMeV][NMeD]-Piperidide; lactam N-11): the pIC50 is under 6.30. Next, `CC[C@H](C)[C@@H]1NC(=O)[C@H](CC(C)C)N(C)C(=O)C[C@@H](C(=O)N2CCCCC2)N(C)C(=O)[C@H](CC(C)C)NC(=O)C(C)(C)N(C)C(=O)[C@H](Cc2cccc(C(F)(F)F)c2)NC(=O)[C@H](Cc2cccc(I)c2)NC(=O)CN(C)C(=O)[C@H](Cc2ccc(C)cc2)N(C)C(=O)CN(C)C(=O)CN(C)C1=O` [Compound 376] ([NMeL]I[Sar][Sar][NMePhe(4-Me)][Sar][Phe(3-I)][Phe(3-CF3)][NMeAib]L[NMeD]-Piperidide; lactam N-11): under 6.30; `CC[C@H](C)[C@@H]1NC(=O)[C@H](CC(C)C)N(C)C(=O)C[C@@H](C(=O)N(C)C)N(C)C(=O)[C@H]([C@@H](C)CC)N(C)C(=O)C2(CCCC2)NC(=O)[C@H](C)N(C)C(=O)[C@H](CCc2ccc(C(F)(F)F)c(Cl)c2)NC(=O)CN(C)C(=O)[C@H](Cc2ccc(C)cc2)N(C)C(=O)[C@@H]2CCN2C(=O)[C@H](C)N(C)C1=O` [Compound 378] ([NMeL]I[NMeA][Aze][NMePhe(4-Me)][Sar][hPhe(3-Cl-4-CF3)][NMeA][Ac5c][NMeI][NMeD]-NMe2; lactam N-11): at least 7.70; `CC[C@H](C)[C@@H]1NC(=O)[C@H](CC(C)C)N(C)C(=O)C[C@@H](C(=O)N(C)C)N(C)C(=O)[C@H]([C@@H](C)CC)N(C)C(=O)[C@H](C(C)C)NC(=O)[C@H](CCN2CCCC(F)(F)C2)N(C)C(=O)[C@H](CCc2ccc(C(F)(F)F)c(Cl)c2)NC(=O)CN(C)C(=O)[C@H](Cc2ccc(C)cc2)N(C)C(=O)[C@@H]2CCN2C(=O)[C@H](C)N(C)C1=O` [Compound 379] ([NMeL]I[NMeA][Aze][NMePhe(4-Me)][Sar][hPhe(3-Cl-4-CF3)][NMeAbu(3,3-F2-piperidino)]V[NMeI][NMeD]-NMe2; lactam N-11): under 6.30. Next, `CC[C@H](C)[C@@H]1NC(=O)[C@H](C)N(C)C(=O)C[C@@H](C(=O)N2CCCCC2)N(C)C(=O)[C@H](C(C)C)N(C)C(=O)C2(CCCC2)NC(=O)[C@@H]2CCCN2C(=O)[C@H](CCc2ccc(C(F)(F)F)c(Cl)c2)NC(=O)[C@@H](C)N(C)C(=O)[C@H](CC2CCCCC2)N(C)C(=O)CN(C)C(=O)CN(C)C1=O` [Compound 380] ([NMeA]I[Sar][Sar][NMeCha][dNMeA][hPhe(3-Cl-4-CF3)]P[Ac5c][NMeV][NMeD]-Piperidide; lactam N-11): under 6.30; `CC[C@H](C)[C@@H]1NC(=O)[C@H](CC(C)C)N(C)C(=O)C[C@@H](C(=O)N(C)C)N(C)C(=O)[C@H]([C@@H](C)CC)N(C)C(=O)[C@H](C)NC(=O)[C@@H](C)NC(=O)[C@H](CCc2ccc(C(F)(F)F)c(Cl)c2)NC(=O)CN(C)C(=O)[C@H](Cc2ccc(C)cc2)N(C)C(=O)[C@@H]2CCN2C(=O)[C@H](C)N(C)C1=O` [Compound 382] ([NMeL]I[NMeA][Aze][NMePhe(4-Me)][Sar][hPhe(3-Cl-4-CF3)][dA]A[NMeI][NMeD]-NMe2; lactam N-11): under 6.30.

Consider `CC[C@H](C)[C@@H]1NC(=O)[C@H](CC(C)C)N(C)C(=O)C[C@@H](C(=O)N(C)C)N(C)C(=O)[C@H](C2CCCC2)N(C)C(=O)[C@H](C(C)C)NC(=O)[C@H](CCN2CCCC(F)(F)C2)N(C)C(=O)[C@H](CCc2ccc(C(F)(F)F)c(Cl)c2)NC(=O)CN(C)C(=O)[C@H](CC2CCCCC2)N(C)C(=O)[C@@H]2CCN2C(=O)[C@H](C)N(C)C1=O` [Compound 389] ([NMeL]I[NMeA][Aze][NMeCha][Sar][hPhe(3-Cl-4-CF3)][NMeAbu(3,3-F2-piperidino)]V[NMeGly(cPent)][NMeD]-NMe2; lactam N-11), for which the pIC50 is under 6.30.

`CCC[C@H]1C(=O)N[C@@H]([C@@H](C)CC)C(=O)N(C)[C@@H](C)C(=O)N2CC[C@H]2C(=O)N(C)[C@@H](CC2CCCCC2)C(=O)N(C)CC(=O)N[C@@H](CCc2ccc(C(F)(F)F)c(Cl)c2)C(=O)N2CCC[C@H]2C(=O)NC2(CCCC2)C(=O)N(C)[C@@H](C2CCCC2)C(=O)N(C)[C@H](C(=O)N2CCCCC2)CC(=O)N1C` [Compound 391] ([NMeNva]I[NMeA][Aze][NMeCha][Sar][hPhe(3-Cl-4-CF3)]P[Ac5c][NMeGly(cPent)][NMeD]-Piperidide; lactam N-11): the pIC50 was at least 7.70. Next, `CCC[C@H]1C(=O)NC2(CCCC2)C(=O)N(C)[C@@H](C2CCCCC2)C(=O)N(C)[C@H](C(=O)N2CCCCC2)CC(=O)N(C)[C@@H](CC(C)C)C(=O)N[C@@H]([C@@H](C)CC)C(=O)N(C)CC(=O)N2CCC[C@H]2C(=O)N(C)[C@@H](CC2CCCCC2)C(=O)N(C)CC(=O)N[C@@H](CCc2ccc(C(F)(F)F)c(Cl)c2)C(=O)N1C` [Compound 392] ([NMeL]I[Sar]P[NMeCha][Sar][hPhe(3-Cl-4-CF3)][NMeNva][Ac5c][NMeChg][NMeD]-Piperidide; lactam N-11): under 6.30; `CC[C@H](C)[C@@H]1NC(=O)[C@H](CC(C)C)N(C)C(=O)C[C@@H](C(=O)N2CCCCC2)N(C)C(=O)[C@H](C(C)C)N(C)C(=O)[C@](C)(CC)NC(=O)[C@@H]2CCCN2C(=O)[C@H](CCc2ccc(C(F)(F)F)c(Cl)c2)NC(=O)CN(C)C(=O)[C@H](CC2CCCCC2)N(C)C(=O)[C@@H]2CCN2C(=O)[C@H](C)N(C)C1=O` [Compound 394] ([NMeL]I[NMeA][Aze][NMeCha][Sar][hPhe(3-Cl-4-CF3)]P[Iva][NMeV][NMeD]-Piperidide; lactam N-11): under 6.30. In the case of `CC[C@H](C)[C@@H]1NC(=O)[C@H](CC(C)C)N(C)C(=O)C[C@@H](C)NC(=O)[C@H](CC(C)C)N(C)C(=O)C2(CCCC2)NC(=O)[C@@H]2CCCN2C(=O)[C@H](CCc2ccc(C(F)(F)F)c(F)c2)NC(=O)CN(C)C(=O)[C@H](CC2CCCCC2)N(C)C(=O)CN(C)C(=O)CN(C)C1=O` [Compound 402] (cyclo([Ac5c][NMeL][d(β3hA)][NMeL]I[Sar][Sar][NMeCha][Sar][hPhe(3-F,4-CF3)]P)), the pIC50 is under 6.30.

As to `CCCN1CC(=O)N(C)[C@@H](CC2CCCCC2)C(=O)N(C)CC(=O)N[C@@H](CCc2ccc(C(F)(F)F)c(Cl)c2)C(=O)N2CCC[C@H]2C(=O)NC2(CCCC2)C(=O)N(C)[C@@H](C(C)C)C(=O)N[C@H](C)CC(=O)N(C)[C@@H](CC(C)C)C(=O)N[C@@H]([C@@H](C)CC)C(=O)N(C)CC1=O` [Compound 405] (cyclo([Ac5c][NMeV][d(β3hA)][NMeL]I[Sar][NPrGly][NMeCha][Sar][hPhe(3-Cl-4-CF3)]P)), the pIC50 was under 6.30.

`CC[C@H](C)[C@@H]1NC(=O)[C@H](CC(C)C)N(C)C(=O)C[C@@H](C)N(C)C(=O)[C@H](CC(C)C)N(C)C(=O)C2(CCOCC2)NC(=O)[C@@H]2CCCN2C(=O)[C@H](CCc2ccc(C(F)(F)F)c(F)c2)NC(=O)CN(C)C(=O)[C@H](CC2CCCCC2)N(C)C(=O)CN(C)C(=O)CN(C)C1=O` [Compound 407] (cyclo(I[Sar][Sar][NMeCha][Sar][hPhe(3-F,4-CF3)]P[Thp][NMeL][NMedβ3hAla][NMeL])): the pIC50 is under 6.30. Next, `CC[C@H](C)[C@@H]1NC(=O)[C@H](CC(C)C)N(C)C(=O)C[C@@H](C(=O)N2CCCCC2)NC(=O)[C@H](C(C)C)N(C)C(=O)C2(CCCC2)NC(=O)[C@@H]2CCCN2C(=O)[C@H](CCc2ccc(C(F)(F)F)c(Cl)c2)NC(=O)CN(C)C(=O)[C@H](CC2CCCCC2)N(C)C(=O)CN(C)C(=O)CN(C)C1=O` [Compound 417] ([NMeL]I[Sar][Sar][NMeCha][Sar][hPhe(3-Cl-4-CF3)]P[Ac5c][NMeV]D-Piperidide; lactam N-11): under 6.30.
